Data: paper PMC10955247, “In vivo screening for toxicity-modulating drug interactions identifies antagonism that protects against ototoxicity in zebrafish” (Frontiers in Pharmacology, 2024)
“Also recorded” adds a separate entry of the source. Structures can show the parent of a compound that is named as a salt.

Key:
[1] = tested on: zebrafish lateral line hair cells; assay: PEPITA quantification of ototoxicity in YO-PRO-1-stained AB zebrafish larvae; assay type: in vivo; conditions: for ototoxic interaction with AZM: co-administration with AZM; for shift toward antagonism in lateral line HC damage as compared to inhibition of the bacterial species on average: interaction with AZM, zebrafish wEOB vs average of E. coli, M. abscessus, S. aureus; for EC75 shift: ototoxin co-administered with azithromycin (AZM) vs administered alone; for ototoxic interaction with clarithromycin (CLM): preliminary experiments; for HC inhibition: in the absence of AZM, 25 μM CAP, 600 μM CIS; for EC50 shift: ototoxin co-administered with AZM vs alone; for interaction with neomycin in pairwise screen (wEOB): pairwise screen of NEO against 13 compounds
Protocol: Therefore, at 5 dpf, larvae were transferred to 12-well plates (5–11 fish per well, 1 well per condition) containing the relevant compound or combination diluted with ICS water, or ICS water alone or high-dose neomycin to serve as controls. Unless otherwise noted, fish were exposed to drug (either an individual compound or a pairwise combination of compounds) for 4 h, as a balance between longer exposure times for accommodating varied kill kinetics and shorter exposure times for technical tractability. Treatments with multiple drugs involved co-administering a prepared solution consisting of both drugs with defined concentrations in ICS water.
Fluorescence microscopy was performed using a Keyence BZ-X800 microscope imaging system, which enables high-throughput semi-automated imaging of 96-well plates.
Each image was masked using automated object detection to include only the fish itself. Manual masks were created on occasion for avoidance of fluorescent contamination, adjusted segmenting for myo6b::gfp fish to remove inner ear HC fluorescence, or exclusion of dead or damaged fish. Each fish was then adjusted for autofluorescence using the fluorophore-free red channel and scored based on the sum of green fluorescence pixel values surrounding 10 of the top 15 brightest pixels in the masked image (Figures 1B–E). These scores were standardized by comparison with the median score of wells containing untreated fish and a score representing no remaining HC fluorescence, both derived for each plate.
Wells where the expected response ( Ra×Rb ) and observed response ( Rab ) were both less than 10% or greater than 90% were excluded from aggregation to reduce the effect of our choice of dose range. The remaining wells were summarized by averaging into a composite interaction score for the combination; we refer to this metric as the “windowed excess over Bliss” (wEOB).

[2] = tested on: MET channel; assay: FM1-43 uptake quantification in lateral line HCs (MET channel activity); assay type: in vivo, Danio rerio; conditions: AZM 190 µM, BZM 50 µM, 30 min, myo6b::gfp larvae
Protocol: FM1-43 experiments were performed with myo6b::gfp fish, raised to 5 dpf as above. Fish were exposed to drug conditions for 30 min, with 4 µM FM1-43 stain added into the drug treatment solution at minute 29, for a 1-min co-treatment stain exposure followed by simultaneous washout of all drugs and stain in fish water and anesthesia in 675 µM tricaine (selection of staining concentration and exposure duration was informed by ([Hernandez et al., 2006]; [Van Trump et al., 2010]; [Thomas et al., 2013]; [Monroe et al., 2016]; [Hailey et al., 2017]; [Majumder et al., 2017]; [Rocha-Sanchez et al., 2018]; [Stawicki et al., 2019]; [Parkinson and Stawicki, 2021]; [Lee et al., 2022]; [Derudas et al., 2023]; [Schrauwen et al., 2023])). Four to seven fish per condition were transferred to 96-well plates for imaging. Using the Keyence BZ-X800 with GFP filter and a custom filter (605/70 nm emission, 470/40 nm excitation), each fish was imaged with a ×2 objective in brightfield and green and red fluorescence channels as above. FM1-43 uptake was validated using benzamil, a known uptake inhibitor ([Rusch et al., 1994]).

[3] = tested on: zebrafish lateral line hair cells; assay: Uptake of TexasRed-conjugated neomycin (NEO-TR) into lateral line HCs; assay type: in vivo, Danio rerio; conditions: for accumulation of NEO-TR within lateral line HCs: NEO-TR 50 μM, 30 min, co-administered AZM 190 µM or BZM 50 µM, myo6b::gfp larvae; for Details (uptake inhibitor mechanism): Table S1, by means other than MET channel inhibition (this study)
Excerpt: To further explore the mechanism of macrolide and aminoglycoside antagonism, we fluorescently labeled the aminoglycosides neomycin and gentamicin with Texas Red-X succinimidyl ester to track HC uptake with and without macrolide treatment (Table 1). To avoid breakdown of fluorescent vital dyes over time, we used larvae with the transgene Tg(myo6b:EGFP); myo6b::gfp, that expressed GFP in their HCs. Drug-induced injury was quantified by loss of fluorescence in HCs. Fish were exposed to the fluorescently-labeled drug with or without macrolide co-administration for 30 min, before being washed in fresh ICS water and anesthetized with 675 µM tricaine. Five fish per condition were transferred to 96-well plates for imaging, as per the drug response testing experiments, while another five were euthanized on ice for 20 min, then fixed in 2% paraformaldehyde for 1 hour at room temperature, to prepare for confocal microscopy. Samples were prepared and GFP fluorescence was acquired following the same confocal imaging procedure as described in Section 2.3; TexasRed fluorescence was acquired with a 595 nm laser and 675/75 emission filter.
For the fish transferred to 96-well plates for imaging, fluorescence microscopy was performed using the Keyence BZ-X800. Using the GFP filter and a TexasRed Filter (630/75 nm emission, 560/40 nm excitation), each myo6b::gfp fish was imaged under a ×2 objective to capture the whole organism in brightfield, green, and red fluorescence channels. Each fish was then imaged under a ×40 objective with z-stacking to track the uptake of the fluorescently labeled aminoglycoside into the HCs in the head of the fish.

[4] = tested on: zebrafish lateral line hair cells; assay: Lateral line hair cell intracellular calcium imaging and cell death; assay type: in vivo
Excerpt: For calcium testing, zebrafish expressing HC-specific GCaMP targeted to the inner mitochondrial matrix were crossed with fish expressing a HC specific calcium indicator to create double-transgenic embryos (Tg (myo6b:mitoGCaMP3;myo6b:cytoRGECO), Table 1) with both green fluorescent mitochondrial calcium and red fluorescent cytosolic calcium indicators, then raised as described previously ([McQuate et al., 2023]). Zebrafish embryos were collected from 2-h spawning periods and raised in Petri dishes in embryo medium (EM: 14.97 mM NaCl, 500 μM KCl, 42 µM Na2HPO4, 150 µM KH2PO4, 1 mM CaCl2 dehydrate, 1 mM MgSO4, 0.714 mM NaHCO3, pH 7.2) at a density of 60 larvae per […] dish, in a dark 28.5°C incubator until 5 dpf. Larvae were screened for indicator expression at 4 dpf.
Calcium imaging was performed using an inverted Marianas spinning disk confocal system (Intelligent Imaging Innovations, 3i) with an Evolve 10 MHz EMCCD camera (Photometrics) and a Zeiss C-Apochromat 63x/1.2 numerical aperture water objective. Larvae were 5-6 dpf at the time of imaging. Larvae were first anesthetized in embryo media containing 800 µM tricaine, then stabilized on their sides under a harp, so that posterior neuromasts were exposed to the surrounding media. Imaging was performed at ambient temperature, approximately 25°C. GCaMP fluorescence was acquired with a 488 nm laser and 535/30 emission filter, with an exposure time of 100 ms, and RGECO fluorescence was acquired with a 561 nm laser and 617/73 emission filter and exposure time of 200 ms. Images were taken every 2 minutes as z-stacks through neuromasts in 2 µm steps. Neomycin and azithromycin were dissolved as a 4X stock in EM (described in Section 2.1: Zebrafish Husbandry), then added to the bath to achieve final working concentration after a 10-min baseline. Imaging of neuromasts continued for 50 min. Images were analyzed in ImageJ. Mean fluorescence intensity was measured for ROIs of individual randomly selected HCs (2–3 HCs per NM, see example ROI in Figure 4). For each HC, values were normalized to the average of baseline using Microsoft Excel.

Question: What does the source list for NCC[C@H](O)C(=O)N[C@@H]1C[C@H](N)[C@@H](O[C@H]2O[C@H](CN)[C@@H](O)[C@H](O)[C@H]2O)[C@H](O)[C@H]1O[C@H]1O[C@H](CO)[C@@H](O)[C@H](N)[C@H]1O [Amikacin (AMK), Amikacin sulfate]?
Answer: ototoxic interaction with AZM [1]: otoprotective antagonistic interactions; shift toward antagonism in lateral line HC damage as compared to inhibition of the bacterial species on average [1]: 31 %pt.; EC75 shift [1]: 8-fold; ototoxic interaction with clarithromycin (CLM) [1]: antagonistic interactions

Question: What does the source list for Capreomycin sulfate [Capreomycin (CAP)]?
Answer: HC inhibition [1]: 90%; EC50 shift [1]: 1.9 fold; EC75 shift [1]: 2.8-fold; EC75 shift ([1]; listed as CAP): 2.8 fold

Question: What does the source list for NC[C@H]1O[C@H](O[C@H]2[C@H](O)[C@@H](O[C@H]3O[C@H](CO)[C@@H](O)[C@H](N)[C@H]3O)[C@H](N)C[C@@H]2N)[C@H](N)C[C@@H]1O [Tobramycin (TOB), Tobramycin]?
Answer: ototoxic interaction with AZM [1]: otoprotective antagonistic interactions; shift toward antagonism in lateral line HC damage as compared to inhibition of the bacterial species on average [1]: 15 %pt.; EC75 shift [1]: >16-fold

Question: What does the source list for N.N.[Cl][Pt][Cl] [Cisplatin (CIS), Cisplatin]?
Answer: HC inhibition [1]: 81%; EC50 shift [1]: 1.4 fold; EC75 shift [1]: 1.8-fold; EC75 shift ([1]; listed as CIS): 1.8 fold

Question: Which results are given for NC(=NCc1ccccc1)NC(=O)c1nc(Cl)c(N)nc1N [BZM, Benzamil]?
Answer: FM1-43 uptake into lateral line HCs [2]: does significantly reduce FM1-43 uptake; also recorded: significant inhibition of FM1-43 uptake; accumulation of NEO-TR within lateral line HCs [3]: inhibition of NEO-TR uptake; interaction with neomycin in pairwise screen (wEOB) [1]: deviate toward antagonism

Question: Which “ototoxic interaction with AZM” value [1] does the source give for NC[C@H]1O[C@H](O[C@H]2[C@H](O)[C@@H](O[C@H]3O[C@H](CO)[C@@H](O)[C@H](N)[C@H]3O)[C@H](N)C[C@@H]2N)[C@H](O)[C@@H](O)[C@@H]1O [Kanamycin (KAN), Kanamycin sulfate] here?
Answer: otoprotective antagonistic interactions

Question: And the “shift toward antagonism in lateral line HC damage as compared to inhibition of the bacterial species on average” value [1]?
Answer: 45 %pt.

Question: And the EC75 shift [1]?
Answer: >16-fold

Question: And the “ototoxic interaction with clarithromycin (CLM)” value [1]?
Answer: antagonistic interactions

Question: Which “FM1-43 uptake into lateral line HCs” value ([2]; listed as AZM) does the source give for CC[C@H]1OC(=O)[C@H](C)[C@@H](O[C@H]2C[C@@](C)(OC)[C@@H](O)[C@H](C)O2)[C@H](C)[C@@H](O[C@@H]2O[C@H](C)C[C@H](N(C)C)[C@H]2O)[C@](C)(O)C[C@@H](C)CN(C)[C@H](C)[C@@H](O)[C@]1(C)O [Azithromycin, Azithromycin dihydrate] here?
Answer: does not significantly hinder FM1-43 uptake; also recorded: did not significantly change FM1-43 accumulation in HCs

Question: And the “accumulation of NEO-TR within lateral line HCs” value ([3]; listed as AZM)?
Answer: inhibition of NEO-TR uptake; also recorded: reduced HC accumulation of NEO-TR

Question: And the “Details (uptake inhibitor mechanism)” value [3]?
Answer: Prevents neomycin uptake

Question: And the “HC cell death (observation)” value ([4]; NEO 50 µM, AZM 190 µM, calcium imaging)?
Answer: low levels of cell death

Question: What about the “HC mitochondrial and cytoplasmic calcium response” value ([4]; NEO 50 µM, AZM 190 µM, mitoGCaMP3, cytoRGECO larvae) of the same molecule?
Answer: occasionally observed increases in mitochondrial calcium

Question: What about the cells that survived ([4]; calcium imaging) of the same molecule?
Answer: 24/25

Question: And the “RFU remaining on average” value ([1]; 380µM AZM alone, aggregate dose response, AB and myo6b::gfp fish)?
Answer: Approximately 65%

Question: What about the “protection against NEO and GEN ototoxicity by co-administration” value ([1]; 1 h (acute) and 4 h (extended) treatment, conditions in which monotherapy induced significant damage) of the same molecule?
Answer: significant protection

Question: What about the “RFU (residual HC fluorescence)” value ([1]; AZM 380 μM, NEO 0 μM, 4 h) of the same molecule?
Answer: 48%

Question: And the “protection from CAP-associated damage by co-administration” value ([1]; capreomycin)?
Answer: significant but less pronounced protection

Question: What about the “protection against damage caused by higher doses of CIS by co-administration” value ([1]; cisplatin) of the same molecule?
Answer: significant but modest protection

Question: And the “interaction with neomycin in pairwise screen (wEOB)” value [1]?
Answer: one of the strongest antagonizing compounds

Question: How did the “ototoxic interaction with AZM” value [1] turn out when CNC(C)C1CCC(N)C(OC2C(N)CC(N)C(OC3OCC(C)(O)C(NC)C3O)C2O)O1 (stereo not shown) [Gentamicin (GEN), Gentamicin sulfate] was run?
Answer: otoprotective antagonistic interactions

Question: What about the “shift toward antagonism in lateral line HC damage as compared to inhibition of the bacterial species on average” value [1] of the same molecule?
Answer: 37 %pt.

Question: And the EC75 shift [1]?
Answer: 13-fold

Question: And the “ototoxic interaction with clarithromycin (CLM)” value [1]?
Answer: antagonistic interactions

Question: With CC[C@H]1OC(=O)[C@H](C)[C@@H](O[C@H]2C[C@@](C)(OC)[C@@H](O)[C@H](C)O2)[C@H](C)[C@@H](O[C@@H]2O[C@H](C)C[C@H](N(C)C)[C@H]2O)[C@](C)(O)C[C@@H](C)C(=O)[C@H](C)[C@@H](O)[C@]1(C)O [Erythromycin] as the molecule, how does the “Details (uptake inhibitor mechanism)” value [3] read?
Answer: Prevents neomycin uptake

Question: And the “otoprotection against aminoglycoside ototoxicity during co-administration” value ([1]; macrolide co-administered with aminoglycosides)?
Answer: antagonistic otoprotection broadly against aminoglycoside ototoxicity
